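Briefly, cells in 96-well plates were exposed to five compound concentrations for 48 h, and endpoints were estimated by linear interpolation. Definition used: TGI = concentration required for complete inhibition of growth.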
Tests used:
Test in all cases: DTP human tumour cell line panel, 48 h
PC-3 prostate = test system: PC-3 prostate
CCRF-CEM leukemia = test system: CCRF-CEM leukemia
HS 578T breast = test system: HS 578T breast
HCT-15 colon = test system: HCT-15 colon
MOLT-4 leukemia = test system: MOLT-4 leukemia
SF-268 CNS = test system: SF-268 CNS
SF-539 CNS = test system: SF-539 CNS
TK-10 renal = test system: TK-10 renal
SNB-75 CNS = test system: SNB-75 CNS
CAKI-1 renal = test system: CAKI-1 renal
NCI-H226 lung = test system: NCI-H226 lung
UACC-62 melanoma = test system: UACC-62 melanoma

SMILES	TGI (PC-3 prostate)	TGI (CCRF-CEM leukemia)	TGI (HS 578T breast)	TGI (HCT-15 colon)	TGI (MOLT-4 leukemia)	TGI (SF-268 CNS)	TGI (SF-539 CNS)	TGI (TK-10 renal)	TGI (SNB-75 CNS)	TGI (CAKI-1 renal)	TGI (NCI-H226 lung)	TGI (UACC-62 melanoma)
COC(=O)c1cc2c(c(C(=O)OC)c1)CCC2	> 100 µM	> 100 µM	> 100 µM	> 100 µM	> 100 µM	> 100 µM	> 100 µM	> 100 µM	> 100 µM	> 100 µM	–	–
Cc1cc(N(CCC#N)CCC#N)ccc1/C(N=Nc1ccc([N+](=O)[O-])cc1)=N\NC(=O)c1cc(Cl)ccc1O	> 100 µM	> 100 µM	91.7 µM	> 100 µM	72.3 µM	91.3 µM	> 100 µM	> 100 µM	> 100 µM	> 100 µM	93 µM	67.6 µM
Cc1ccc(S(=O)(=O)n2cc(C=O)c(-c3cn(S(=O)(=O)c4ccc(C)cc4)cc3-c3cn(S(=O)(=O)c4ccc(C)cc4)cc3C=O)c2)cc1	> 100 µM	> 100 µM	> 100 µM	> 100 µM	93.3 µM	> 100 µM	76.4 µM	72 µM	> 100 µM	> 100 µM	> 100 µM	> 100 µM
C=C1C(C(=O)OC)[C@H]1C(=O)OC (some centres not stated)	> 100 µM	–	> 100 µM	> 100 µM	> 100 µM	> 100 µM	> 100 µM	> 100 µM	> 100 µM	> 100 µM	> 100 µM	> 100 µM
COC(=O)c1ccc(NCc2cc(OC)ccc2OC)cc1	> 100 µM	> 100 µM	> 100 µM	> 100 µM	> 100 µM	> 100 µM	> 100 µM	> 100 µM	> 100 µM	> 100 µM	> 100 µM	> 100 µM
CC(=O)Nc1nc(C)c(S(=O)(=O)NC(=O)NC2NC(=O)NC2=O)s1 (configuration not stated)	> 100 µM	> 100 µM	> 100 µM	> 100 µM	> 100 µM	> 100 µM	> 100 µM	> 100 µM	> 100 µM	> 100 µM	–	> 100 µM
COc1ccc(S(=O)(=O)Nc2ccc(-c3csc(N4C(=O)/C(=C/c5ccccc5[N+](=O)[O-])N=C4c4ccccc4)n3)cc2)cc1Cl	> 100 µM	–	> 100 µM	81.2 µM	> 100 µM	> 100 µM	> 100 µM	> 100 µM	> 100 µM	> 100 µM	> 100 µM	> 100 µM
COc1ccc(C(=O)/C=C/c2ccc(OCCCCCCCCCCOc3ccc(/C=C/C(=O)c4ccc(OC)cc4)cc3)cc2)cc1	> 100 µM	> 100 µM	> 100 µM	> 100 µM	> 100 µM	> 100 µM	> 100 µM	> 100 µM	> 100 µM	> 100 µM	> 100 µM	> 100 µM
C(=N\c1nc2cc3sc(/N=C/c4ccccc4)nc3cc2s1)/c1ccccc1	> 100 µM	42 µM	97.4 µM	> 100 µM	> 80.9 µM	> 100 µM	> 100 µM	> 100 µM	> 100 µM	> 100 µM	> 74 µM	> 100 µM
O=P1(c2ccccc2)C(c2ccccc2)CCC1c1ccccc1 (configuration not stated)	> 100 µM	> 100 µM	> 100 µM	> 100 µM	> 100 µM	> 100 µM	> 100 µM	> 100 µM	> 100 µM	73.9 µM	> 100 µM	> 100 µM
CCOP(=O)(CC(=O)C1CC1)OCC	> 100 µM	> 100 µM	> 100 µM	> 100 µM	> 100 µM	> 100 µM	> 100 µM	> 100 µM	> 100 µM	> 100 µM	> 100 µM	> 100 µM
COC(=O)CCc1ccc(CCC(=O)OC)cc1	> 100 µM	> 100 µM	> 100 µM	> 100 µM	> 100 µM	> 100 µM	> 100 µM	> 100 µM	> 100 µM	> 100 µM	–	–
CN(O)C(=O)CCC(NC(=O)CCC(N)C(=O)O)C(=O)NCC(=O)O (configuration not stated)	> 100 µM	> 100 µM	> 100 µM	> 100 µM	> 100 µM	> 100 µM	> 100 µM	> 100 µM	> 100 µM	> 100 µM	> 100 µM	> 100 µM
CCn1c(SCC(=O)N/N=C2\SCC(=O)N2c2ccc(C)cc2)nc2ccccc2c1=O	54.2 µM	> 100 µM	41.7 µM	> 100 µM	> 100 µM	47.7 µM	33.5 µM	31 µM	36.6 µM	33.2 µM	64.8 µM	29.1 µM
C=C1C2CCC3C4(C)CCCC(C)(C(=O)O)C4CCC3(C2)C1OC(=O)/C(C)=C/C (configuration not stated)	> 100 µM	> 100 µM	> 100 µM	61.6 µM	–	> 100 µM	55.1 µM	> 100 µM	> 100 µM	> 100 µM	> 100 µM	62.2 µM
COc1cc(C2C=C(c3ccccc3)Oc3cc4c(cc32)OCO4)cc(OC)c1OC (configuration not stated)	> 100 µM	> 100 µM	> 100 µM	> 100 µM	> 100 µM	> 100 µM	3.63 µM	> 100 µM	> 90.8 µM	> 100 µM	–	> 100 µM
C[C@H](Nc1nc(N)c(N=O)c(=O)n1C)C(=O)O	> 10 µM	> 10 µM	> 10 µM	> 10 µM	> 10 µM	> 10 µM	> 10 µM	> 10 µM	> 10 µM	> 10 µM	> 10 µM	> 10 µM
CC(C)C1CSC2N1C(=O)C2(OCc1ccccc1)C1CC1 (configuration not stated)	> 100 µM	> 100 µM	> 100 µM	> 100 µM	> 100 µM	> 100 µM	> 100 µM	> 100 µM	> 100 µM	> 100 µM	> 100 µM	> 100 µM
CCOC(=O)CNC(=O)C(CCC(=O)N(C)O)NC(=O)CCC(N)C(=O)O (configuration not stated)	> 100 µM	> 100 µM	> 100 µM	> 100 µM	> 100 µM	> 100 µM	> 100 µM	> 100 µM	> 100 µM	> 100 µM	> 100 µM	> 100 µM

SMILES	TGI (PC-3 prostate)	TGI (CCRF-CEM leukemia)	TGI (HS 578T breast)	TGI (HCT-15 colon)	TGI (MOLT-4 leukemia)	TGI (SF-268 CNS)	TGI (SF-539 CNS)	TGI (TK-10 renal)	TGI (SNB-75 CNS)	TGI (CAKI-1 renal)	TGI (NCI-H226 lung)	TGI (UACC-62 melanoma)
O=c1[nH]c(NCc2cccnc2)nc2nc[nH]c12	> 100 µM	> 100 µM	> 100 µM	> 100 µM	> 100 µM	> 100 µM	> 100 µM	> 100 µM	> 100 µM	> 100 µM	> 100 µM	> 100 µM
COc1ccc(/C=C2\N=C(N3CCCC(CO)C3)NC2=O)cc1 (configuration not stated)	> 100 µM	> 100 µM	> 100 µM	> 100 µM	> 100 µM	> 100 µM	> 100 µM	> 100 µM	> 100 µM	> 100 µM	> 100 µM	> 100 µM
O=[N+]([O-])c1ncc(N(CCO)CCO)s1	> 100 µM	56.9 µM	> 100 µM	> 100 µM	> 100 µM	> 100 µM	30.7 µM	79.5 µM	> 100 µM	> 100 µM	> 100 µM	43.7 µM
Cc1ccc2nc3ccccc3c(C3C4C(=O)N(c5ccc(F)cc5)C(=O)C4ON3C(C(N)=O)c3ccccc3)c2c1 (configuration not stated)	> 100 µM	> 100 µM	> 100 µM	> 100 µM	> 100 µM	> 100 µM	72.1 µM	> 100 µM	> 100 µM	> 100 µM	> 100 µM	> 100 µM
CCOP(=O)(OCC)Oc1c(OC)c2[nH]c(C(=O)OC)cc2c2c(C(=O)O)c[nH]c12	> 100 µM	> 100 µM	> 100 µM	> 100 µM	> 100 µM	> 100 µM	> 100 µM	> 100 µM	> 100 µM	> 100 µM	–	> 100 µM
CC(C)(C)c1cc(/C=C(\C#N)C2=NCCO2)cc(C(C)(C)C)c1O	7.37 µM	9.35 µM	34.1 µM	13.1 µM	21.1 µM	16.1 µM	12.2 µM	16 µM	7.47 µM	> 35.5 µM	20.1 µM	17.1 µM
COC(=O)C(CNC(=O)/C=C/c1ccc(OC)c(OC)c1)NC(=O)/C=C/c1ccc(OC)c(OC)c1 (configuration not stated)	> 100 µM	> 100 µM	> 100 µM	> 100 µM	> 100 µM	> 100 µM	> 100 µM	> 100 µM	> 100 µM	> 100 µM	> 100 µM	> 100 µM
O=C(O)/C=C/c1ccc(Oc2ccccc2C(=O)O)o1	> 10 µM	> 10 µM	> 10 µM	> 10 µM	> 10 µM	> 10 µM	> 10 µM	> 10 µM	> 10 µM	> 10 µM	–	> 10 µM
Cc1c(NC(=S)Nc2ccc([N+](=O)[O-])cc2)c(=O)n(-c2ccccc2)n1C	> 100 µM	> 100 µM	> 100 µM	> 100 µM	> 100 µM	> 100 µM	> 100 µM	> 100 µM	> 100 µM	> 100 µM	> 100 µM	> 100 µM
CCCCSC1=N/C(=C\c2ccccc2O)C(=O)N1	92.6 µM	–	> 100 µM	> 100 µM	> 100 µM	> 100 µM	> 100 µM	> 100 µM	> 100 µM	> 100 µM	> 100 µM	> 100 µM
COC(=O)C1=C(C)NC(=O)N2[C@@H](CCOCc3ccccc3)CC[C@@H]12	> 50 µM	> 50 µM	> 50 µM	> 50 µM	> 50 µM	> 50 µM	> 50 µM	> 50 µM	> 50 µM	> 50 µM	> 50 µM	> 50 µM
C#CC1(O)CCC2[C@@H]3CCc4cc(Oc5nc(F)nc(-c6c(C)c(C(=O)OCC)n7ccccc67)n5)ccc4C3CC[C@@]21C (some centres not stated)	> 100 µM	> 100 µM	> 100 µM	> 100 µM	> 100 µM	> 100 µM	> 100 µM	> 100 µM	> 100 µM	> 100 µM	> 100 µM	> 100 µM
Cc1nc(-c2ccccc2)cn2c1nc1ccccc12	69.5 µM	> 100 µM	> 87.5 µM	> 68.5 µM	> 100 µM	> 66.8 µM	53 µM	> 74.7 µM	> 52.2 µM	62.1 µM	41.1 µM	31.7 µM
CCOC(=O)C(NC(=O)c1cccc(Cl)c1)(Nc1ccc(S(=O)(=O)Nc2cc(C)on2)cc1)C(F)(F)F (configuration not stated)	> 100 µM	> 100 µM	> 100 µM	> 100 µM	> 100 µM	> 100 µM	> 100 µM	> 100 µM	> 100 µM	> 100 µM	> 100 µM	–
Cc1ccc2c(c1)nc1n2C(c2c(F)cccc2F)SC1 (configuration not stated)	> 100 µM	> 100 µM	92.7 µM	82.4 µM	87.4 µM	> 100 µM	59.2 µM	> 100 µM	> 100 µM	> 100 µM	> 100 µM	–
Cc1nc2c(c(N3CCN(C)CC3)n1)Cc1ccccc1-2	> 100 µM	> 100 µM	> 100 µM	> 100 µM	–	> 100 µM	> 100 µM	88.1 µM	> 100 µM	49.4 µM	> 100 µM	> 100 µM
O=C1C(Cl)=C(Cl)C(=O)C(CCNc2nccs2)=C1Cl	42.2 µM	> 100 µM	75.3 µM	43.7 µM	> 100 µM	> 100 µM	> 100 µM	63.6 µM	69.5 µM	37.1 µM	–	63.6 µM
Nn1c(CCCCCCCCc2nnc(-c3c(O)ccc4ccccc34)n2N)nnc1-c1c(O)ccc2ccccc12	> 100 µM	–	> 100 µM	> 100 µM	> 100 µM	> 100 µM	> 100 µM	> 100 µM	> 100 µM	> 100 µM	> 100 µM	> 100 µM
